Experiment [1] concerns the target T1, Toll-like receptor 2 (Homo sapiens, UniProt O60603). Description: Agonist activity at TLR2 in HEK-Blue cells upto 200 uM incubated for 24 hrs by Quanti-Blue based SEAP assay. Type of experiment: cell-based. The settings on record: HEK-Blue hTLR2, dose microM <=200, time 24.0 hrs.
In experiment [2] the target is T1, Toll-like receptor 2. In words: Agonist activity at TLR2 in HEK-Blue cells incubated for 24 hrs by Quanti-Blue based SEAP assay. Type of experiment: cell-based, HEK-Blue hTLR2.
Experiment [3] deals with T1, Toll-like receptor 2. In words: Binding affinity to recombinant human TLR2 expressed in H5 cells by surface plasmon resonance method. On the technique in general: SPR reads the build-up and loss of mass on a sensor chip optically.

The structures appear in SMILES notation. Activity calls are given as the source filed them. No cut-off for these calls is given here.

T1 sequence (O60603 whole entry): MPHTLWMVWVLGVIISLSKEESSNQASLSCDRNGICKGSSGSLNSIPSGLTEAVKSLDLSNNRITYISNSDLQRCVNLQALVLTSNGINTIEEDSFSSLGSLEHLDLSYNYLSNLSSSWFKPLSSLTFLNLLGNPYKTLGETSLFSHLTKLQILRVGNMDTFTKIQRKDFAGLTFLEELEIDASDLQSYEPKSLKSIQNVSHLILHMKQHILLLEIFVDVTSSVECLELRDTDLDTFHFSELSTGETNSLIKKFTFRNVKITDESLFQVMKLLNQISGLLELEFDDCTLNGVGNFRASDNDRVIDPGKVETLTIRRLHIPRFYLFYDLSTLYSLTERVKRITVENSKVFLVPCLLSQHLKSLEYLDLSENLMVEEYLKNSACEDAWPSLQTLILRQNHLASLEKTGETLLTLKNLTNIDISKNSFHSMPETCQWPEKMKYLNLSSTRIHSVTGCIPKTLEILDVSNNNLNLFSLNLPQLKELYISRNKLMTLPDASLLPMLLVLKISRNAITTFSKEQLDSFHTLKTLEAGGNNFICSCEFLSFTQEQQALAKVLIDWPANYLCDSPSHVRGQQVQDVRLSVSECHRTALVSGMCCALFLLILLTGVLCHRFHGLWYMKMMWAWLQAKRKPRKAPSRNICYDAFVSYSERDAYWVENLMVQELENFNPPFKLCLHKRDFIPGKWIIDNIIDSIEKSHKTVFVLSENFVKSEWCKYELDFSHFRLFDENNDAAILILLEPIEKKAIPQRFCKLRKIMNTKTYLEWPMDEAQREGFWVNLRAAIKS

As for `CCOC(=O)c1c(NC(=O)Nc2ccc(Cl)c(Cl)c2)sc2c1CCC2`, the outcome at Toll-like receptor 2 [1] was inactive.

In the case of `CC(C)COC(=O)c1c(NC(=S)Nc2cccc3ccccc23)sc2c1CCCC2`, on Toll-like receptor 2 [2], the EC50 came to 30.4 µM.

On to `COC(=O)c1c(NC(=S)Nc2ccc(C)cc2)sc2c1CCCC2`, for which, at Toll-like receptor 2 [2], the response was half-maximal at 10.3 µM (EC50).

Molecule `CCOC(=O)c1c(NC(=S)Nc2ccc(-c3ccccc3)cc2)sc2c1CCC2` came in with an EC50 on Toll-like receptor 2 [2] of 7.13 µM.

For the molecule `CCOC(=O)c1c(NC(=S)Nc2cccc3ccccc23)sc2c1CCC(C)C2` (configuration not stated), the EC50 on Toll-like receptor 2 [2] is 1.73 µM.

For the molecule `CCOC(=O)c1c(NC(=S)Nc2cccc3ccccc23)sc2c1CCN(C)C2`, at Toll-like receptor 2 [1], the outcome was inactive.

Turning to `COC(=O)c1c(NC(=S)NCCc2ccccc2)sc2c1CCCC2`, on Toll-like receptor 2 [1], the result was inactive.

On to `CCOC(=O)c1ccsc1NC(=S)Nc1cccc2ccccc12`, for which the result at Toll-like receptor 2 [1] was inactive.

At Toll-like receptor 2 [2], `COC(=O)c1c(NC(=S)Nc2ccc(C(F)(F)F)cc2)sc2c1CCCC2` yielded a half-maximal effective concentration (EC50) of 33.9 µM.

As to `COC(=O)c1c(NC(=O)Nc2ccc(Cl)cc2)sc2c1CCC2`, the result on Toll-like receptor 2 [1] was inactive.

Turning to `COC(=O)c1c(NC(=O)Nc2ccc(C)cc2)sc2c1CCC2`, the outcome on Toll-like receptor 2 [1] was inactive.

`COC(=O)c1c(NC(=S)Nc2ccccc2)sc2c1CCCC2` returned an EC50 on Toll-like receptor 2 [2] of 14.7 µM.

On to `CCOC(=O)c1c(NC(=O)Nc2ccccc2)sc2c1CCC2`, for which the midpoint of the response on Toll-like receptor 2 [2], the EC50, lay at 11.9 µM.

For the molecule `COC(=O)c1c(NC(=O)Nc2ccc(Cl)cc2)sc2c1CCCC2`, the result at Toll-like receptor 2 [1] was inactive.

On Toll-like receptor 2 [2], `CCOC(=O)c1c(NC(=O)Nc2cccc3ccccc23)sc2c1CCC2` gave an EC50 of 7.6 µM.

As for `CCOC(=O)c1c(N=C(S)Nc2ccc(F)cc2)sc2c1CCC2`, on Toll-like receptor 2 [2], the EC50 came to 13.3 µM.

In the case of `COC(=O)c1c(NC(=S)Nc2ccccc2)sc2c1CCC2`, on Toll-like receptor 2 [2], a half-maximal effect (EC50) was put at 14.1 µM.

Turning to `CC(C)COC(=O)c1c(NC(=S)Nc2cccc3ccccc23)sc2c1CCC2`, the response at Toll-like receptor 2 [2] was half-maximal at 28.2 µM (EC50).

As to `CCCCOC(=O)c1c(NC(=S)Nc2cccc3ccccc23)sc2c1CCCC2`, the outcome on Toll-like receptor 2 [1] was inactive.

`CCOC(=O)c1c(NC(=S)Nc2ccc(C(F)(F)F)cc2)sc2c1CCCC2` displayed an EC50 on Toll-like receptor 2 [2] of 11.9 µM.

On to `O=C(O)c1c(NC(=S)Nc2cccc3ccccc23)sc2c1CCC2`, for which the outcome at Toll-like receptor 2 [1] was inactive.

Take `CC(C)OC(=O)c1c(-c2ccccc2)csc1NC(=S)Nc1cccc2ccccc12`: the outcome on Toll-like receptor 2 [1] was inactive.

In the case of `CC(C)(C)OC(=O)c1c(NC(=S)Nc2cccc3ccccc23)sc2c1CCCC2`, the outcome on Toll-like receptor 2 [1] was inactive.

For `COC(=O)c1c(NC(=S)NCCCSC)sc2c1CCCC2`, the result on Toll-like receptor 2 [1] was inactive.

As for `CC(C)OC(=O)c1c(NC(=S)Nc2cccc3ccccc23)sc2c1CCN(C)C2`, the outcome at Toll-like receptor 2 [1] was inactive.

For `O=C(O)c1c(NC(=S)Nc2cccc3ccccc23)sc2c1CCCC2`, the result at Toll-like receptor 2 [1] was inactive.

On Toll-like receptor 2 [2], `CCOC(=O)c1c(NC(=O)Nc2cccc3ccccc23)sc2c1CCCC2` gave an EC50 of 5.84 µM.

Take `COC(=O)c1c(NC(=S)Nc2cccc3ccccc23)sc2c1CCC2`: at Toll-like receptor 2 [2], the EC50 was 3.57 µM.

As to `CCOC(=O)c1c(NC(=O)Nc2ccc(Cl)cc2)sc2c1CCCC2`, the result at Toll-like receptor 2 [1] was inactive.

With `CCOC(=O)c1c(-c2ccccc2)csc1NC(=S)Nc1cccc2ccccc12`, the result on Toll-like receptor 2 [1] was inactive.

Regarding `CCCOC(=O)c1c(NC(=S)Nc2cccc3ccccc23)sc2c1CCC2`, at Toll-like receptor 2 [2], the concentration giving a half-maximal response (EC50) turned out to be 0.82 µM.

Regarding `CCOC(=O)c1c(NC(=S)Nc2ccc(F)cc2)sc2c1CCCC2`, on Toll-like receptor 2 [2], the concentration giving a half-maximal response (EC50) was 12.1 µM.

The molecule `COC(=O)c1c(NC(=S)Nc2cccc3ccccc23)sc2c1CCCC2` showed an EC50 on Toll-like receptor 2 [2] of 7.33 µM.

On to `CC(C)OC(=O)c1c(NC(=S)Nc2ccc(Br)c3ccccc23)sc2c1CCC2`, for which, at Toll-like receptor 2 [2], the EC50 was 0.039 µM.

As for `CC(C)OC(=O)c1ccsc1NC(=S)Nc1cccc2ccccc12`, the outcome on Toll-like receptor 2 [1] was inactive.

In turn, `CCOC(=O)c1c(NC(=S)Nc2ccc(Cl)cc2)sc2c1CCC2` had an EC50 at Toll-like receptor 2 [2] of 2.5 µM.

Turning to `CCOC(=O)c1c(NC(=O)Nc2cccc(Cl)c2)sc2c1CCC2`, on Toll-like receptor 2 [1], the outcome was inactive.

In the case of `CCOC(=O)c1c(NC(=S)Nc2cccc3ccccc23)sc2c1CCCCC2`, on Toll-like receptor 2 [2], the EC50 amounted to 2.35 µM.

For `CC(C)OC(=O)c1c(NC(=S)Nc2ccc(F)c3ccccc23)sc2c1CCCC2`, a half-maximal response on Toll-like receptor 2 [2] (EC50) required 0.035 µM.

As for `CCOC(=O)c1c(N=C(S)Nc2ccccc2)sc2c1CCCCC2`, the EC50 on Toll-like receptor 2 [2] came to 28.5 µM.

As to `CCOC(=O)c1c(NC(=S)NCCCSC)sc2c1CCCC2`, the result at Toll-like receptor 2 [1] was inactive.

Consider `CCOC(=O)c1c(NC(=S)Nc2ccccc2)sc2c1CCC2`, for which a half-maximal effect on Toll-like receptor 2 [2] (EC50) was put at 5.9 µM.

As to `O=C(OCCc1ccccc1)c1c(NC(=S)Nc2cccc3ccccc23)sc2c1CCC2`, the outcome at Toll-like receptor 2 [1] was inactive.

On to `CCOC(=O)c1c(NC(=O)Nc2ccc(Cl)c(Cl)c2)sc2c1CCCC2`, for which the outcome on Toll-like receptor 2 [1] was inactive.

Molecule `CCOC(=O)c1c(NC(=O)Nc2ccc(C)cc2)sc2c1CCC2` had an EC50 at Toll-like receptor 2 [2] of 12.1 µM.

Take `CCOC(=O)c1c(NC(=S)Nc2ccc(C)cc2)sc2c1CCCC2`: on Toll-like receptor 2 [2], the response was half-maximal at 8.77 µM (EC50).

For the molecule `CCOC(=O)c1c(NC(=O)Nc2ccc(C)cc2)sc2c1CCCC2`, the response at Toll-like receptor 2 [2] was half-maximal at 14.6 µM (EC50).

`CC(C)OC(=O)c1c(NC(=S)Nc2cccc3ccccc23)sc2c1CCCC2` displayed an EC50 at Toll-like receptor 2 [2] of 0.14 µM.

Turning to `CCOC(=O)c1c(NC(=O)Nc2ccc(Cl)cc2)sc2c1CCC2`, the result at Toll-like receptor 2 [1] was inactive.

As to `CC(C)(C)OC(=O)c1c(NC(=S)Nc2cccc3ccccc23)sc2c1CCC2`, the result on Toll-like receptor 2 [1] was inactive.

On to `CCOC(=O)c1c(NC(=O)Nc2ccccc2)sc2c1CCCCC2`, for which the EC50 at Toll-like receptor 2 [2] turned out to be 11.7 µM. The Kd at Toll-like receptor 2 [3] was 9 µM.

The EC50 is the concentration at which the effect is half-maximal. A low value points to an effect from little substance. As usually defined, the Kd is the free concentration of one partner at which half of the binding sites on the other are occupied at equilibrium, for simple one-to-one binding.

(Values after ChEMBL document CHEMBL5038589, “Design, Synthesis, and Structure-Activity Relationship of N-Aryl-N'-(thiophen-2-yl)thiourea Derivatives as Novel and Specific Human TLR1/2 Agonists for Potential Cancer Immunotherapy” (J Med Chem, 2021).)
